What was measured:
1600 = target: T1, 1600 (Homo sapiens, UniProt P11712, C216Y/E288V/F295L/I215V/I222L/I223L/I331V/I99H/K206E/L362I/N289I/P221A/S220P/S286N/V292A); assay: Inhibition assay on 2C9-2C19 chimera (Table 17); format: biochemical; conditions: chimera 1600, Table 17
T1 construct: is residue 30 (all numbering is in relation to the full length protein), and the last residue is residue 490; made in house; host or cells: E. coli XL1 Blue

1155 = target: T2, 1155 (Homo sapiens, UniProt P11712, C216Y/I215V/I222L/I223L/K206E/P221A/S220P); assay: Inhibition assay with substrates/inhibitors of 2C19 and 2C9 (Table 17); format: biochemical; conditions: protein 1155, Table 17
T2 construct: is residue 30 (all numbering is in relation to the full length protein), and the last residue is residue 490; made in house; host or cells: E. coli XL1 Blue

1661 = target: T3, 1661 (Homo sapiens, UniProt P11712, C216Y/I215V/I222L/I223L/I99H/K206E/N289I/P221A/S220P/S286N); assay: Inhibition assay on 2C9-2C19 chimera (Table 17); format: biochemical; conditions: chimera 1661, Table 17
T3 construct: is residue 30 (all numbering is in relation to the full length protein), and the last residue is residue 490; made in house; host or cells: E. coli XL1 Blue

1632 = target: T4, 1632 (Homo sapiens, UniProt P11712, C216Y/E288V/F295L/I215V/I222L/I223L/I99H/K206E/N289I/P221A/S220P/S286N/V292A); assay: Inhibition assay on 2C9-2C19 chimera (Table 17); format: biochemical; conditions: chimera 1632, Table 17
T4 construct: is residue 30 (all numbering is in relation to the full length protein), and the last residue is residue 490; made in house; host or cells: E. coli XL1 Blue

2C19 = 2C19 (Homo sapiens, UniProt P33261); conditions: protein 2C19 (published), Table 17; cited from earlier work
2C9 = 2C9 (Homo sapiens, UniProt P11712); conditions: cited from earlier work; for Ki: read-out: 2C9 Published data, Ki, published
2C9trunc = 2C9trunc (Homo sapiens, UniProt P11712); assay: Inhibition assay with substrates/inhibitors of 2C9
2C9-FGloop K206E = 2C9-FGloop K206E (Homo sapiens, UniProt P11712, C216Y/I215V/I222L/I223L/K206E/P221A/S220P); assay: biochemical
2C9-FGloop K206E, sequence (P11712 30-490 K206E/I215V/C216Y/S220P/P221A/I222L/I223L): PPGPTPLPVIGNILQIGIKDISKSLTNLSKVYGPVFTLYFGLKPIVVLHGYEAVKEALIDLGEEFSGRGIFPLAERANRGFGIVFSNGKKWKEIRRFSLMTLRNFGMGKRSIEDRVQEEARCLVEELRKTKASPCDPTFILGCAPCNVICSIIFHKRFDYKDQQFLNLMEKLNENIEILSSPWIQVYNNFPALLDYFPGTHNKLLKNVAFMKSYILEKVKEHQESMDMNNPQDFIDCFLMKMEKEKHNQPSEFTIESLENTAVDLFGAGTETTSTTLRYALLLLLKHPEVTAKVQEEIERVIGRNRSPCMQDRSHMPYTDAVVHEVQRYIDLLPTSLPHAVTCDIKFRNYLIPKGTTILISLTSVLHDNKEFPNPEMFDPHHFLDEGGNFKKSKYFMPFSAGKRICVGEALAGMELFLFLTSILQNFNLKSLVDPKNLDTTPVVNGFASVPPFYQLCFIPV

2C9, sequence (P11712 whole entry): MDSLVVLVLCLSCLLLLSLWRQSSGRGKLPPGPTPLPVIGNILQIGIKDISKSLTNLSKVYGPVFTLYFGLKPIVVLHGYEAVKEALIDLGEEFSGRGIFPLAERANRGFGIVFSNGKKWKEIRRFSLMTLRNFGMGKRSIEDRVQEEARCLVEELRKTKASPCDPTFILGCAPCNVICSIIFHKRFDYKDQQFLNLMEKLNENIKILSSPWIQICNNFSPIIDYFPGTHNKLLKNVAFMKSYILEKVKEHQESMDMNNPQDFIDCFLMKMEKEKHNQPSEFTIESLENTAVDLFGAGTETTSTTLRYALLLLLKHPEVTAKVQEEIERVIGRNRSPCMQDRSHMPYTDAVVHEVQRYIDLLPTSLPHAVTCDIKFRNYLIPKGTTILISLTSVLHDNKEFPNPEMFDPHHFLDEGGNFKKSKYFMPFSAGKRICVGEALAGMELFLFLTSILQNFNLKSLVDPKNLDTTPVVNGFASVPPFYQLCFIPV
2C9trunc, sequence (P11712 30-490): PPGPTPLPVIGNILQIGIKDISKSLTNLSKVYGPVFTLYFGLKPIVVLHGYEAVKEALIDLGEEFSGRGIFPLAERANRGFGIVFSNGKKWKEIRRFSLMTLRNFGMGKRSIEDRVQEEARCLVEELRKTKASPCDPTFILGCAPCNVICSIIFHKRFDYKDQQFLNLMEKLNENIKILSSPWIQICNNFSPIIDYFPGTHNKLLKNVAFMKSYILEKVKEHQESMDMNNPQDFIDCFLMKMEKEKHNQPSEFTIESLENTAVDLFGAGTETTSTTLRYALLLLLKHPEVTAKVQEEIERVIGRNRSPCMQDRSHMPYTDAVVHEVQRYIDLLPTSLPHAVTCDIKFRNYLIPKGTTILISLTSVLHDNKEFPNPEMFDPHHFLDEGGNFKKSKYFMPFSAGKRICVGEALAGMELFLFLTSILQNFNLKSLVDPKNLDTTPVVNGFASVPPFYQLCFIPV
T4 sequence (P11712 30-490 I99H/K206E/I215V/C216Y/S220P/P221A/I222L/I223L/S286N/E288V/N289I/V292A/F295L): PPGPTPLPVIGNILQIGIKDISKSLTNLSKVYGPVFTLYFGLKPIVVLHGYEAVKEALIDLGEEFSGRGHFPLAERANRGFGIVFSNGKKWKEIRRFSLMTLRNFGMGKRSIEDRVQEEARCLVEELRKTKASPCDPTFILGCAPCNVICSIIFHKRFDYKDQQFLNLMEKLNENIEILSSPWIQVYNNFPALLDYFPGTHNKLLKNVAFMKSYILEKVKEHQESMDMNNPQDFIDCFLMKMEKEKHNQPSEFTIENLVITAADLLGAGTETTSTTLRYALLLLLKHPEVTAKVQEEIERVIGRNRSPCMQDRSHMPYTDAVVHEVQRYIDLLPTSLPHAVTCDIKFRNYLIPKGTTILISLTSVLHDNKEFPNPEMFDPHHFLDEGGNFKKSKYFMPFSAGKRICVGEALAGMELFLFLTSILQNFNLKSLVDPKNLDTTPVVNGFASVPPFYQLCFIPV
T2 sequence (P11712 30-490 K206E/I215V/C216Y/S220P/P221A/I222L/I223L): as the sequence (P11712 30-490 K206E/I215V/C216Y/S220P/P221A/I222L/I223L) above
2C19, sequence (P33261 whole entry): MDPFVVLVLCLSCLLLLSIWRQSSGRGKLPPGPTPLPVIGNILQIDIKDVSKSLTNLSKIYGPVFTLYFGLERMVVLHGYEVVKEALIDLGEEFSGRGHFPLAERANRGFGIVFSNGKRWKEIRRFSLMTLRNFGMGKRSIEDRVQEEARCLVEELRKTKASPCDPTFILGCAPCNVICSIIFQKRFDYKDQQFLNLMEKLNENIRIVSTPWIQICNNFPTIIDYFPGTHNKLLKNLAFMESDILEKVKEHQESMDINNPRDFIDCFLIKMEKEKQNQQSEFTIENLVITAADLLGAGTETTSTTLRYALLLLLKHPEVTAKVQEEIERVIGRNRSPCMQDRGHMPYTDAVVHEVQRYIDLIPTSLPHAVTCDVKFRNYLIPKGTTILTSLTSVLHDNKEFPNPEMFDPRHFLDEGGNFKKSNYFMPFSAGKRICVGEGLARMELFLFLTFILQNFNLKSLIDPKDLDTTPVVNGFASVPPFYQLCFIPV
T1 sequence (P11712 30-490 I99H/K206E/I215V/C216Y/S220P/P221A/I222L/I223L/S286N/E288V/N289I/V292A/F295L/I331V/L362I): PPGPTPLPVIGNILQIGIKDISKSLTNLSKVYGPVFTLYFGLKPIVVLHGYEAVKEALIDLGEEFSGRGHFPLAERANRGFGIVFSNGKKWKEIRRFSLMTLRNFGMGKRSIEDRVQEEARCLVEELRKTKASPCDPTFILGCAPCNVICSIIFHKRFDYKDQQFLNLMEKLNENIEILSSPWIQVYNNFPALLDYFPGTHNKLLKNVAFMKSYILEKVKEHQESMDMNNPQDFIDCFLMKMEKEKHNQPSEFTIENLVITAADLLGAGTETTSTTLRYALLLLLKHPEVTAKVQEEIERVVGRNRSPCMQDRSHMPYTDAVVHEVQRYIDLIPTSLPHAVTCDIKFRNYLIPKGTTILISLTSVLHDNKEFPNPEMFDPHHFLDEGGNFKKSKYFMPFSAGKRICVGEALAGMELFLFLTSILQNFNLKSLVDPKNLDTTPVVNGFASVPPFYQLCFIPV
T3 sequence (P11712 30-490 I99H/K206E/I215V/C216Y/S220P/P221A/I222L/I223L/S286N/N289I): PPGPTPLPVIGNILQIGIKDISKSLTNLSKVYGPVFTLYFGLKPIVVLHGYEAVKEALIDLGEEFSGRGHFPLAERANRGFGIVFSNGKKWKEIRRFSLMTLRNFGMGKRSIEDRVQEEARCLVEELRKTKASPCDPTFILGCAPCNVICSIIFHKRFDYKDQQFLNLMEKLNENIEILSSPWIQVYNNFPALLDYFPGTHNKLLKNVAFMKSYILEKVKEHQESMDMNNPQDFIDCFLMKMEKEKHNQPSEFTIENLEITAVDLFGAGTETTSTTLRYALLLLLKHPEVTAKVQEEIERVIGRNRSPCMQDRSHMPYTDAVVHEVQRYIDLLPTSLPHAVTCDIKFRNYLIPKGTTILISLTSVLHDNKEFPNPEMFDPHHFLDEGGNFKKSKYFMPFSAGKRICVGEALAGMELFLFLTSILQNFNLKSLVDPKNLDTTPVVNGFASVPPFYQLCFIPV

SMILES	IC50 (2C9trunc) [µM]	Ki (2C9trunc) [µM]	IC50 (2C9-FGloop K206E) [µM]	Ki (2C9-FGloop K206E) [µM]	Ki 1600 [µM]	Ki 1155 [µM]	Ki 1661 [µM]	Ki 1632 [µM]	Ki (2C19) [µM]	Km (2C9) [µM]	Ki (2C9) [µM]
CN1C(C(=O)Nc2ccccn2)=C(O)c2ccccc2S1(=O)=O [Piroxicam]	–	–	–	–	> 100	30	> 100	> 100	133	–	–
O=C(O)Cc1ccccc1Nc1c(Cl)cccc1Cl [Diclofenac]	–	–	–	–	–	–	–	–	231	–	–
COCCCC/C(=N\OCCN)c1ccc(C(F)(F)F)cc1 [Fluvoxamine]	0.6	0.7	0.4	0.85	< 1	0.4	0.5	1.6	–	–	2 to 5

Now from value to compound, other results behind:

IC50 (2C9trunc) [µM]	Ki (2C9trunc) [µM]	IC50 (2C9-FGloop K206E) [µM]	Ki (2C9-FGloop K206E) [µM]	SMILES	Ki 1600 [µM]	Ki 1155 [µM]	Ki 1661 [µM]	Ki 1632 [µM]	Ki (2C19) [µM]	Km (2C9) [µM]	Ki (2C9) [µM]
4.8	2.9	7.8	3.3	CC(C)(c1ccc(O)cc1)c1ccc(O)cc1 [Bisphenol A]	–	–	–	–	–	4	–
1.5	1.5	2.1	4.1	CNCCC(Oc1ccc(C(F)(F)F)cc1)c1ccccc1 (stereo not shown) [Fluoxetine]	–	–	–	–	–	–	13

Reference: patent US20040053383A1, “Crystals of cytochrome P450 2C9, structures thereof and their use” (ASTEX TECHNOLOGY LTD., priority 2001, published 2004)
